The record followed here is US11958831B2, “Pyrazole compounds, pharmaceutical compositions thereof and use thereof” (ARTIVILA (SHENZHEN) INNOVATION CENTER, LTD., priority 2018, dated 2024).

The target of one test is IRAK4 kinase (Homo sapiens (Human), UniProt Q9NWZ3). Kind of test: IRAK4 kinase activity assay (mobility shift, Km ATP). The class given is biochemical. The conditions noted are these: Km ATP (15.6 μM ATP), 1 nM IRAK4, 60 min room temperature. The procedure:
Inhibitory activity (IC50) of the compounds against IRAK4 kinase under Km ATP was detected through mobility spectrum analysis (MSA). IRAK4 kinase was purchased from Carna (Cat. No.: 09-145, batch No.: 14CBS-0020H), and Kinase Substrate 8 was purchased from GL Biochem (Cat. No.: 112396, batch No.: P171207-MJI112396).
The compounds were prepared with DMSO to 100 times the final reaction concentration and diluted to 10 concentrations in sequence at a 3-fold dilution ratio starting from 1 μM. Then 0.25 μL was transferred to a 384-well plate using Echo550. A 1× kinase buffer (50 mM HEPES, pH=7.5, 0.0015% Brij-35, 10 mM MgCl2, 2 mM DTT) was used to prepare a kinase solution of 2.5 times the final concentration. Then 10 μL of the kinase solution of 2.5 times the final concentration was added to each compound well, shaken and mixed uniformly, and incubated at room temperature for 10 min. A 1× kinase buffer was used to prepare a mixed solution of ATP and substrate Kinase Substrate 8 with a concentration of 25/15 times the final concentration. 15 μL of the mixed solution of ATP and the substrate with a concentration of 25/15 times the final concentration were added to each well (the final concentration of IRAK4 kinase was 1 nM, the final concentration of the substrate was 3 μM, and the final concentration of ATP was 15.6 μM), shaken and mixed uniformly, and reacted at room temperature for 60 min. Finally, 30 μL of stopping solution (100 mM HEPES, pH=7.5, 0.0015% Brij-35, 0.2% Coating Reagent #3, 50 mM EDTA) was added to terminate the reaction. CaliperEZ Reader II was used to read data about conversion rates that was then converted into data about inhibition rates. According to the data about the inhibition rate at each concentration, the half maximal inhibitory concentration (IC50) (Table 1) was calculated by a Logit method.

Test [1] concerns TNFα secretion in THP-1 cells. The test is described as follows: Cellular activity assay: LPS-stimulated TNFα secretion in THP-1 cells (ELISA). It is filed as cell-based. To be noted: Homo sapiens, LPS 1 μg/mL, 4.5 h, read-out: IC50 inhibiting TNFα secretion in THP-1 cells stimulated by LPS. Here is the method:
Inhibition of IRAK4 by the compounds of the present application was evaluated in THP-1 cells for cellular activity. The stimulus used in this experiment was LPS. LPS is a TLR4 agonist that stimulates the secretion of TNFα through TLR-IRAK4 signaling pathway in the THP-1 cells. Once the signaling pathway is inhibited by IRAK4 inhibitors, the production of TNFα is inhibited. In this experiment, the secretion of TNFα was detected by ELISA.
150 μL of RPMI-1640 medium (Gibco, catalog No.: 11875-085) solution containing 10000 THP-1 cells were added to each well of a 96-well plate and then 25 μL of a test compound solution of 8 times the final concentration (starting from […], 3-fold dilution, 8 concentrations, each concentration containing 4% DMSO RPMI-1640 medium) were added, and they were mixed uniformly and incubated at 37° C. for 30 min. 25 μL of RPMI-1640 medium solution containing LPS were added to each well (the final LPS concentration was 1 μg/mL and the final DMSO concentration was 0.5%), mixed uniformaly, and incubated at 37° C. for 4.5 h. The 96-well plate was rotated at 2000 rpm for 5 min, then 50 μL of supernatant was taken, and the TNFα content in the supernatant was determined with a human ELISA kit (Life Technologies, catalog No.: KHC3011). The IC50 (Table 2) of the compound was calculated by XL-Fit.
For orientation: ELISA stands for enzyme-linked immunosorbent assay.

Chain of IRAK4 kinase (Q9NWZ3 whole entry): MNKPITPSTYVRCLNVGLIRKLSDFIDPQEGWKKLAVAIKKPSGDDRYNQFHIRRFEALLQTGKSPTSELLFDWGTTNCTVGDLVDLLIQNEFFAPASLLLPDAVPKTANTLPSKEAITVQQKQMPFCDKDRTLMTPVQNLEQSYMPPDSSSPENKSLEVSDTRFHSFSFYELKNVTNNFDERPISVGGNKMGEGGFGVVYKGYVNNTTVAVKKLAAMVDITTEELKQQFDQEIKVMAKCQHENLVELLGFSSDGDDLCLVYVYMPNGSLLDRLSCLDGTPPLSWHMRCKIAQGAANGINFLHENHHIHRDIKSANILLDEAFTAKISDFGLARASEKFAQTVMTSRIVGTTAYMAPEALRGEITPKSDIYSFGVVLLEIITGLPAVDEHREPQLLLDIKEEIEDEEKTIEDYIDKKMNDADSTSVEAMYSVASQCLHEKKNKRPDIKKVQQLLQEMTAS

`CC(C)(O)C(=O)N1CCC(N2CC(n3cc(NC(=O)c4cccc(-c5cnn(CC(F)(F)F)c5)n4)c(C(F)F)n3)C2)CC1` [Example 32, N-(3-(difluoromethyl)-1-(1-(1-(2-hydroxy-2-methylpropionyl)piperidin-4-yl)azetidin-3-yl)-1H-pyrazol-4-yl)-6-(1-(2,2,2-trifluoroethyl)-1H-pyrazol-4-yl)-2-picolinamide]: the figures for the IC50 (at IRAK4 kinase; in test [1]) were 0.97 nM and 52 nM, respectively.

As for `O=C(Nc1cn(C2CN(C3CCN(C(=O)CO)CC3)C2)nc1C(F)F)c1cccc(-c2cnn(CC(F)(F)F)c2)n1` [Example 4, N-(3-(difluoromethyl)-1-(1-(1-(2-hydroxyacetyl)piperidin-4-yl)azetidin-3-yl)-1H-pyrazol-4-yl)-6-(1-(2,2,2-trifluoroethyl)-1H-pyrazol-4-yl)-2-picolinamide], the results for the IC50 (on IRAK4 kinase; in test [1]) were 0.68 nM and 33 nM, respectively. As for `C[C@@H](O)C(=O)N1CCC(N2CC(n3cc(NC(=O)c4cccc(-c5cnn(CC(F)(F)F)c5)n4)c(C(F)F)n3)C2)CC1` [Example 31, (R)—N-(3-(difluoromethyl)-1-(1-(1-(2-hydroxypropionyl)piperidin-4-yl)azetidin-3-yl)-1H-pyrazol-4-yl)-6-(1-(2,2,2-trifluoroethyl)-1H-pyrazol-4-yl)-2-picolinamide], the IC50 at IRAK4 kinase was 0.79 nM; in test [1] it was 42 nM. For `C[C@H](O)C(=O)N1CCC(N2CC(n3cc(NC(=O)c4cccc(-c5cnn(CC(F)F)c5)n4)c(C(F)F)n3)C2)CC1` [Example 34, (S)-6-(1-(2,2-difluoroethyl)-1H-pyrazol-4-yl)-N-(3-(difluoromethyl)-1-(1-(1-(2-hydroxypropionyl)piperidin-4-yl)azetidin-3-yl)-1H-pyrazol-4-yl)-2-picolinamide], in that order: 1 nM and 46 nM. The like results for `CC(=O)N1CCC(N2CC(n3cc(NC(=O)c4cccc(-c5cnn(CC(F)(F)F)c5)n4)c(C(F)F)n3)C2)CC1` [Example 3, N-(1-(1-(1-acetylpiperidin-4-yl)azetidin-3-yl)-3-(difluoromethyl)-1H-pyrazol-4-yl)-6-(1-(2,2,2-trifluoroethyl)-1H-pyrazol-4-yl)-2-picolinamide] were, in that order, 0.87 nM and 35 nM.

For the compound `CC(=O)N1CCC(N2CC(n3cc(NC(=O)c4cccc(-c5cnn(CC(F)F)c5)n4)c(C(F)F)n3)C2)CC1` [Example 1, N-(1-(1-(1-acetylpiperidin-4-yl)azetidin-3-yl)-3-(difluoromethyl)-1H-pyrazol-4-yl)-6-(1-(2,2-difluoroethyl)-1H-pyrazol-4-yl)-2-picolinamide], the IC50 amounted to 1.2 nM at IRAK4 kinase and 29 nM in test [1]. The like results for `O=C(Nc1cn(C2CN(C3CCN(C(=O)CO)CC3)C2)nc1C(F)F)c1cccc(-c2cnn(CC(F)F)c2)n1` [Example 2, 6-(1-(2,2-Difluoroethyl)-1H-pyrazol-4-yl)-N-(3-(difluoromethyl)-1-(1-(1-(2-hydroxyacetyl)piperidin-4-yl)azetidin-3-yl)-1H-pyrazol-4-yl)-2-picolinamide] were, in that order, 0.99 nM and 27 nM. For `CC(C)(O)C(=O)N1CCC(N2CC(n3cc(NC(=O)c4cccc(-c5cc[nH]n5)n4)c(C(F)F)n3)C2)CC1` [Example 41, N-(3-(difluoromethyl)-1-(1-(1-(2-hydroxy-2-methylpropionyl)piperidin-4-yl)azetidin-3-yl)-1H-pyrazol-4-yl)-6-(1H-pyrazol-3-yl)-2-picolinamide], in that order: 0.43 nM and 23 nM.

Regarding `C[C@@H](O)C(=O)N1CCC(N2CC(n3cc(NC(=O)c4cccc(-c5cnn(CC(F)F)c5)n4)c(C(F)F)n3)C2)CC1` [Example 35, (R)-6-(1-(2,2-difluoroethyl)-1H-pyrazol-4-yl)-N-(3-(difluoromethyl)-1-(1-(1-(2-hydroxypropionyl)piperidin-4-yl)azetidin-3-yl)-1H-pyrazol-4-yl)-2-picolinamide], the IC50 is 1.3 nM at IRAK4 kinase and 48 nM in test [1]. For `CC(=O)N1CCC(N2CC(n3cc(NC(=O)c4cccc(-c5cnn(C(C)(C)CN)c5)n4)c(C(F)F)n3)C2)CC1` [Example 13, N-(1-(1-(1-acetylpiperidin-4-yl)azetidin-3-yl)-3-(difluoromethyl)-1H-pyrazol-4-yl)-6-(1-(1-amino-2-methylpropan-2-yl)-1H-pyrazol-4-yl)-2-picolinamide], in that order: 0.73 nM and 25 nM.

As to `CC(C)(C#N)n1cc(-c2cccc(C(=O)Nc3cn(C4CN(C5CCN(C(=O)CO)CC5)C4)nc3C(F)F)n2)cn1` [Example 43, 6-(1-(2-Cyanopropan-2-yl)-1H-pyrazol-4-yl)-N-(3-(difluoromethyl)-1-(1-(1-(2-hydroxyacetyl)piperidin-4-yl)azetidin-3-yl)-1H-pyrazol-4-yl)-2-picolinamide], the IC50 on IRAK4 kinase was determined as 0.97 nM; in test [1], 42 nM. In the case of `O=C(Nc1cn(C2CN(C3CCN(C(=O)CO)CC3)C2)nc1C(F)F)c1cccc(-c2cc[nH]n2)n1` [Example 27, N-(3-(difluoromethyl)-1-(1-(1-(2-hydroxyacetyl)piperidin-4-yl)azetidin-3-yl)-1H-pyrazol-4-yl)-6-(1H-pyrazol-3-yl)-2-picolinamide], the values for the IC50 (at IRAK4 kinase; in test [1]) were 0.51 nM and 18 nM, respectively. `CC(=O)N1CCC(N2CC(n3cc(NC(=O)c4cccc(-c5cnn(C(C)(C)C#N)c5)n4)c(C(F)F)n3)C2)CC1` [Example 12, N-(1-(1-(1-acetylpiperidin-4-yl)azetidin-3-yl)-3-(difluoromethyl)-1H-pyrazol-4-yl)-6-(1-(2-cyanopropan-2-yl)-1H-pyrazol-4-yl)-2-picolinamide]: the IC50 at IRAK4 kinase was determined as 0.91 nM; in test [1] it was 43 nM. With `CC(C)(O)C(=O)N1CCC(N2CC(n3cc(NC(=O)c4cccc(-c5cnn(CC(F)F)c5)n4)c(C(F)F)n3)C2)CC1` [Example 36, 6-(1-(2,2-Difluoroethyl)-1H-pyrazol-4-yl)-N-(3-(difluoromethyl)-1-(1-(1-(2-hydroxy-2-methylpropionyl)piperidin-4-yl)azetidin-3-yl)-1H-pyrazol-4-yl)-2-picolinamide], the IC50 at IRAK4 kinase amounted to 0.96 nM; in test [1], 50 nM. For `CC(=O)N1CCC(N2CC(n3cc(NC(=O)c4cccc(-c5cc[nH]n5)n4)c(C(F)F)n3)C2)CC1` [Example 24, N-(1-(1-(1-acetylpiperidin-4-yl)azetidin-3-yl)-3-(difluoromethyl)-1H-pyrazol-4-yl)-6-(1H-pyrazole-3-yl)-2-picolinamide], in that order: 0.59 nM and 20 nM. For the compound `COC(=O)N1CCC(N2CC(n3cc(NC(=O)c4cccc(-c5cnn(C(C)(C)CN)c5)n4)c(C(F)F)n3)C2)CC1` [Example 18, Methyl 4-(3-(4-(6-(1-(1-amino-2-methylpropan-2-yl)-1H-pyrazol-4-yl)-2-picolinamide)-3-(difluoromethyl)-1H-pyrazol-1-yl)azetidin-1-yl)piperidine-1-carboxylate], the IC50 at IRAK4 kinase amounted to 0.67 nM.

On to `CC(=O)N1CCC(N2CC(n3cc(NC(=O)c4cccc(-c5cnn(CC(C)(C)O)c5)n4)c(C(F)F)n3)C2)CC1` [Example 15, N-(1-(1-(1-acetylpiperidin-4-yl)azetidin-3-yl)-3-(difluoromethyl)-1H-pyrazol-4-yl)-6-(1-(2-hydroxy-2-methylpropyl)-1H-pyrazol-4-yl)-2-picolinamide], for which, on IRAK4 kinase, the IC50 is 3.9 nM. As to `CC(=O)N1CCC(N2CC(n3cc(NC(=O)c4cccc(-c5cnn(C(F)F)c5)n4)c(C(F)F)n3)C2)CC1` [Example 5, N-(1-(1-(1-acetylpiperidin-4-yl)azetidin-3-yl)-3-(difluoromethyl)-1H-pyrazol-4-yl)-6-(1-(difluoromethyl)-1H-pyrazol-4-yl)-2-picolinamide], at IRAK4 kinase, the IC50 came to 4.3 nM.

As a reminder, the IC50 is the midpoint of a concentration-inhibition curve.
